What all share (assay): Phosphatase assay with ENDY(P)INASL as substrate
What all share (format): biochemical

The target of one assay is T1, CD45 (Homo sapiens, UniProt P08575).
T1 construct: CD45 were purified from placenta and spleen, respectively; from tissue; host or cells: spleen
T1 sequence (P08575 26-1306): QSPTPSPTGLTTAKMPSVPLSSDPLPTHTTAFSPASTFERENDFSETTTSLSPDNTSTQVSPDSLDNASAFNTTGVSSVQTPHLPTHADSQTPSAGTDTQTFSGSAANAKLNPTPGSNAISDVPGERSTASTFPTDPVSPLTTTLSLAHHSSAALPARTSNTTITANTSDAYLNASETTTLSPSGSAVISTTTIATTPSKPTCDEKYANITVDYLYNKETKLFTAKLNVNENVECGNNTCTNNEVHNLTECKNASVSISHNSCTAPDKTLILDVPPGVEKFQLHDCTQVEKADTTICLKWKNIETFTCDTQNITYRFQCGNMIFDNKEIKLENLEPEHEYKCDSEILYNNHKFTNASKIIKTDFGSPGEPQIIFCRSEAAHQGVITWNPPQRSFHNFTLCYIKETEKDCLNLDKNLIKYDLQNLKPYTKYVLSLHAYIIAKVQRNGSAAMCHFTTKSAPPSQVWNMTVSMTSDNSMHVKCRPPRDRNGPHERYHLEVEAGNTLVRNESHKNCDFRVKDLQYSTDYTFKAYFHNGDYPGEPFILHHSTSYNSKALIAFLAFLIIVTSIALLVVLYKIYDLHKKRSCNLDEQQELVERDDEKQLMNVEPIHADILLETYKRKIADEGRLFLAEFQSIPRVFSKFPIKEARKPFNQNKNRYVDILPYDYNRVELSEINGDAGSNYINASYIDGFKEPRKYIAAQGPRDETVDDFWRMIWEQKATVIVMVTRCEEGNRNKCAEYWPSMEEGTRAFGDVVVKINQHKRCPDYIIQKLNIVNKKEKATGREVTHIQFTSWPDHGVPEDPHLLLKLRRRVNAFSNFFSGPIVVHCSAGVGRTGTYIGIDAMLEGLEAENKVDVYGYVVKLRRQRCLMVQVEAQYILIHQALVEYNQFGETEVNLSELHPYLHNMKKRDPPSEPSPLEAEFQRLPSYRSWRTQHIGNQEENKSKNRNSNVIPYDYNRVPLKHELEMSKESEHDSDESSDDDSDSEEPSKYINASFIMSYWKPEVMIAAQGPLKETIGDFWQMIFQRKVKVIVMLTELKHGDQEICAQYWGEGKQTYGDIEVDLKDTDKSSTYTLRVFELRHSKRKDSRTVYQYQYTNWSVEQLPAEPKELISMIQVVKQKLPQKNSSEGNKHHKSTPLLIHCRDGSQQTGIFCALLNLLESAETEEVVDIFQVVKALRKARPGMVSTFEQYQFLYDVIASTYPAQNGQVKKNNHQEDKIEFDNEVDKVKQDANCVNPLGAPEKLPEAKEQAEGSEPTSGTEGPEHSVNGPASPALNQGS
How it is done: (§1) The tyrosine phosphatases TC.PTP, TCΔC11.PTP, and RPTPα were purified from infected Sf9 cells as described recently (Zander et al., Biochemistry 30: 6964-6970, 1991; Daum et al., J. Biol. Chem. 266: 12211-12215, 1991). The 37 kDa form of PTP1B and CD45 were purified from placenta and spleen, respectively (according to Tonks et al., J. Biol. Chem. 263: 6722-6730, 1988; Tonks et al., Biochemistry 27: 8695-8701, 1988).
(§2) Phosphatase assays with ENDY(P)INASL were performed in buffer M6. Aliquots of 30 μl or 60 μl containing the phosphopeptide, the phosphatase (-beads) and effectors were incubated for 10 minutes at 30° C. The reaction was stopped by adding 200 μl of a suspension of 10% activated, acid-washed Norit A charcoal (v/v) in 0.9N HCl, 0.1M pyrophosphate and 2 mM NaH2 PO4 (according to Streuli et al., Proc. Natl. Acad. Sci. USA 86: 8698-8702, 1989). The mixture was cleared by 10-minute centrifugation and the radioactivity of 150 μl of the supernate was determined. Assays with MBP and RCML were performed as described in Tonks et al., J. Biol. Chem. 263: 6722-6730, 1988. Protein concentration was determined with BSA as standard (Bradford, Anal. Biochem. 72: 248-254, 1976).

In another assay the target is T2, PTP1B (Homo sapiens, UniProt P18031).
T2 construct: The 37 kDa form of PTP1B; from tissue; host or cells: placenta
T2 sequence (P18031 1-321 limits assumed): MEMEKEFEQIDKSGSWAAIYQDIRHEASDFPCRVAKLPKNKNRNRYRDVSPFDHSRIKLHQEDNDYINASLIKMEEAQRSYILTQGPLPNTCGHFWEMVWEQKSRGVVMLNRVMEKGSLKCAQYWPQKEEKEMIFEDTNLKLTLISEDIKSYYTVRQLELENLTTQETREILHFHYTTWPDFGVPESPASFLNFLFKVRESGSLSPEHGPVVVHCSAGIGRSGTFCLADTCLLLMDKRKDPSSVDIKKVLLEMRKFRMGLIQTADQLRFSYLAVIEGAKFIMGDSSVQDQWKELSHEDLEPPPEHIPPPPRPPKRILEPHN
How it is done: as §1, §2

A further assay has as its target T3, RPTPα (Homo sapiens, UniProt P18433).
T3 construct: made in house; host or cells: Sf9 cells (baculovirus)
How it is done: as §1, §2

The target of a further assay is T4, TC.PTP (Homo sapiens, UniProt P17706).
T4 construct: made in house; host or cells: Sf9 cells (baculovirus)
T4 sequence (P17706 1-415): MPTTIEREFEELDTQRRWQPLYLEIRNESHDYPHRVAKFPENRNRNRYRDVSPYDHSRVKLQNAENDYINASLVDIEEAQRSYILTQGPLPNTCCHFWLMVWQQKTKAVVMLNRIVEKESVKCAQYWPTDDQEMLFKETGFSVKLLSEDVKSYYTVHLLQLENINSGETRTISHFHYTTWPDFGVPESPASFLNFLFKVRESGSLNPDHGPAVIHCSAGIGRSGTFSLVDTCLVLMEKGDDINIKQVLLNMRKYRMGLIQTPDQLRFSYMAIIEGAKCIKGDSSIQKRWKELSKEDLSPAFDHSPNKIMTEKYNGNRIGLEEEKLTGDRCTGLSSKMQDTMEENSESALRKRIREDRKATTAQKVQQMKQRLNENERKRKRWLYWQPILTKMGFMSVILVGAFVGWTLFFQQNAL
As to conditions: TC.PTP. How it is done:
as §1, §2

The next assay concerns the target T5, TCΔC11.PTP (Homo sapiens, UniProt P17706).
T5 construct: both the wild type and truncated forms of the T-cell phosphatase; made in house; host or cells: Sf9 cells (baculovirus)
T5 sequence (P17706 1-317 limits assumed): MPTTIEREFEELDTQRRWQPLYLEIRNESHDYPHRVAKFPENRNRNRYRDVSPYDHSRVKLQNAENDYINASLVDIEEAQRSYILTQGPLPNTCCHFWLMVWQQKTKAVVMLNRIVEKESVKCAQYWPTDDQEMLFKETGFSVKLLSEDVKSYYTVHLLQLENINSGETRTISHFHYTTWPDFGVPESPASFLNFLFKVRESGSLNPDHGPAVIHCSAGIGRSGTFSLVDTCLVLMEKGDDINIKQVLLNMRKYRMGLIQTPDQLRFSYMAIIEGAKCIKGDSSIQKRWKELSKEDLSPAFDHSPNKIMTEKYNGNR
Here is the method: as §1, §2

Setting [1] is: 10 min, effector 0.1 mM, read-out: Phosphatase activity in percent of the value obtained in the absence of effectors.
Where [2] appears, read: 10 min, effector 2.0 mM, read-out: Phosphatase activity in percent of the value obtained in the absence of effectors.
Where [3] appears, read: 10 min, effector 5.0 mM, read-out: Phosphatase activity in percent of the value obtained in the absence of effectors.
The mark [4] stands for this setting: 10 min, effector 0.5 mM, read-out: Phosphatase activity in percent of the value obtained in the absence of effectors.
Setting [5] is: 10 min, effector 1.0 mM, read-out: Phosphatase activity in percent of the value obtained in the absence of effectors.

T3 sequence (P18433 20-802): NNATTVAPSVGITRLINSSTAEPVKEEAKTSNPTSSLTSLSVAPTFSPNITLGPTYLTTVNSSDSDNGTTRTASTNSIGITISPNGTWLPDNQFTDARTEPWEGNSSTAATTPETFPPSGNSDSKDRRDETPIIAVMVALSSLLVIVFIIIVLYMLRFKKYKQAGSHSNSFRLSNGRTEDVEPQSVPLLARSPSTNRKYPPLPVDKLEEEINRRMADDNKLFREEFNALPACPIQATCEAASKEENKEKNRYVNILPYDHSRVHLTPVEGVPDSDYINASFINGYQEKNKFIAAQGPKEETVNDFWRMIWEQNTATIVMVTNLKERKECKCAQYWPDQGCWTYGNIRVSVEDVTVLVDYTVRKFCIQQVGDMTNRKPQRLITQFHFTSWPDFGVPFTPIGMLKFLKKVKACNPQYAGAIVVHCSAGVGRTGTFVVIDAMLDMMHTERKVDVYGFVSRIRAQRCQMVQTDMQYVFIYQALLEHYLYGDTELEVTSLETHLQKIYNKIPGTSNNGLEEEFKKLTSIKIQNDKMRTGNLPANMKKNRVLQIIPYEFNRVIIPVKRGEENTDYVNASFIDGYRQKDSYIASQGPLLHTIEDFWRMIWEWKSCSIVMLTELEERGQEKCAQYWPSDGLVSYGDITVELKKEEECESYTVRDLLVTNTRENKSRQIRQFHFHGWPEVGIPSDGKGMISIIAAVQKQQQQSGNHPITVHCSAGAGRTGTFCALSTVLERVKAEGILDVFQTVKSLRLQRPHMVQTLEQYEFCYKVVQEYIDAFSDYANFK

As to `[Mn+2]` [Mn^2+], the “Phosphatase activity in percent of the value obtained in the absence of effectors” value (“Phosphatase activity in percent” below) on CD45 (effector 1.0 mM) was 78%; on CD45 (effector 3.0 mM), 56%; at CD45 (effector 5.0 mM), 44%; on PTP1B (effector 1.0 mM) it was 26%; at PTP1B (effector 3.0 mM), 23%; at PTP1B (effector 5.0 mM), 20%. For the same molecule, the “Phosphatase activity in percent” value is on record as 60% on RPTPα (effector 1.0 mM); 38% on RPTPα (effector 3.0 mM); 21% on RPTPα (effector 5.0 mM); 49% at TC.PTP (effector 1.0 mM); 30% at TC.PTP (effector 3.0 mM); 21% on TC.PTP (effector 5.0 mM). Besides, the “Phosphatase activity in percent” value at TCΔC11.PTP (effector 1.0 mM) worked out at 34%; at TCΔC11.PTP (effector 3.0 mM) it was 22%; on TCΔC11.PTP (effector 5.0 mM) it was 15%.

Consider `[Zn+2]` [Zn^2+], for which the “Phosphatase activity in percent” value at CD45 (effector 0.01 mM) is 92%; at CD45 (effector 0.1 mM) it was 53%; on CD45 (effector 1.0 mM), 3%; at PTP1B (effector 0.01 mM), 65%; on PTP1B (effector 0.1 mM), 17%; on PTP1B (effector 1.0 mM), 6%. The “Phosphatase activity in percent” value at RPTPα (effector 0.01 mM) was determined as 99%; on RPTPα (effector 0.1 mM), 77%; on RPTPα (effector 1.0 mM), 4%; at TC.PTP (effector 0.01 mM), 61%; at TC.PTP (effector 0.1 mM) it was 26%; on TC.PTP (effector 1.0 mM) it was 8%. The results for the “Phosphatase activity in percent” value on TCΔC11.PTP (effector 0.01 mM), on TCΔC11.PTP (effector 0.1 mM) and at TCΔC11.PTP (effector 1.0 mM) were 61%, 54% and 21%, respectively.

With `NCCCCNCCCN` [spermidine], the remaining activity at 100 µM amounted to 103% on CD45 (setting [1]), 72% on RPTPα (setting [1]), 92% at TC.PTP (setting [1]) and 67% on TCΔC11.PTP (setting [1]). Also, the remaining activity at 2000 µM is 92% on CD45 (setting [2]), 60% at RPTPα (setting [2]), 88% on TC.PTP (setting [2]) and 65% on TCΔC11.PTP (setting [2]). Besides, the remaining activity at 5000 µM is 83% on CD45 (setting [3]), 34% on RPTPα (setting [3]), 91% on TC.PTP (setting [3]) and 66% at TCΔC11.PTP (setting [3]). Moreover, the entries for the “Phosphatase activity in percent” value on PTP1B (effector 0.1 mM), at PTP1B (effector 2.0 mM) and on PTP1B (effector 5.0 mM) were 89%, 94% and 92%, respectively.

Turning to `NCCCNCCCCNCCCN` [spermine], the remaining activity at 100 µM was found to be 117% on CD45 (setting [1]), 89% at RPTPα (setting [1]), 119% at TC.PTP (setting [1]) and 81% at TCΔC11.PTP (setting [1]). For the same molecule, the remaining activity at 500 µM is 100% at CD45 (setting [4]), 57% on RPTPα (setting [4]), 109% at TC.PTP (setting [4]) and 60% on TCΔC11.PTP (setting [4]). Moreover, the remaining activity at 1000 µM at CD45 (setting [5]) is 85%; at RPTPα (setting [5]) it was 41%; at TC.PTP (setting [5]) it was 82%; at TCΔC11.PTP (setting [5]), 55%. Also, the “Phosphatase activity in percent” value at PTP1B (effector 0.1 mM) is reported as 87%; at PTP1B (effector 0.5 mM), 89%; on PTP1B (effector 1.0 mM), 82%.

Source of the values: patent US5739278A, “Compositions for protein tyrosine phosphatases” (University of Washington, priority 1995, dated 1998).
